In patent EP0880540B1, “17-BETA-CYCLOPROPYL(AMINO/OXY) 4-AZA STEROIDS AS ACTIVE INHIBITORS OF TESTOSTERONE 5-ALPHA-REDUCTASE AND C17-20-LYASE” (Aventis Pharmaceuticals Inc., priority 1996, dated 1997):

Target: T1, Rat testicular C17,20 lyase (Rattus norvegicus, UniProt P11715)
T1 construct: testes were excised, capsules were removed, and the tissue was weighed; from tissue; host or cells: testes of male Copenhagen rats (Harlan Laboratories), 10,000 x G supernatant of homogenate
T1 sequence (P11715 1-507): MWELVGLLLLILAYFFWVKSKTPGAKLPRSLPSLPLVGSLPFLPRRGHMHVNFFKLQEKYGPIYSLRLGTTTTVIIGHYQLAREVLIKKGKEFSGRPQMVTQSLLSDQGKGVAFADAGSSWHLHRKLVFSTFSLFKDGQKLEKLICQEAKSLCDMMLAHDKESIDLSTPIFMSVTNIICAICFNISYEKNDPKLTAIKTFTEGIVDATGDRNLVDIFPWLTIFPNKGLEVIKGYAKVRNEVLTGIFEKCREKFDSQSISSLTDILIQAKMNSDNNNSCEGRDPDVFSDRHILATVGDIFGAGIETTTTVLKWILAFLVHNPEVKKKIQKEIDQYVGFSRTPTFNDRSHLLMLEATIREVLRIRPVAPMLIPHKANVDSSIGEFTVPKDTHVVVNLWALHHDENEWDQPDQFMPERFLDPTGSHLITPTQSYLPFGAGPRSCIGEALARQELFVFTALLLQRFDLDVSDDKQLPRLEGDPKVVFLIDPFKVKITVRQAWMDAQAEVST
Test: Ex vivo inhibition of C17,20 lyase in rat testes after dosing
Parameters: species or system Male Copenhagen rats
Procedure: Ex vivo inhibition of C17,20 lyase: MDL 103,432 was tested for ex vivo inhibition of rat and nude mouse testes lyase. Male Copenhagen rats and male athymic nude mice obtained from Harlan Laboratories, Indianapolis, IN, were divided into groups of 5 to 6 based on weight. Average weight was 100-140 g each for rats and 18-35 g each for the mice. Prior to oral dosing, animals were fasted overnight. Test compound was prepared by micronization in a lecithin vehicle using a glass Teflon® pestle-type homogenizer. The compound was brought to volume using lecithin so as to administer 0.5 mL per 100 g animal. Rats and nude mice were given vehicle only (controls) or vehicle plus test compounds peros. Rats were also given the compound in lecithin or lecithin alone subcutaneously. Each group consisted of 5-6 animals. At a specified time after dosing, the animals were anesthetized with CO2 gas, sacrificed by cervical dislocation, testes were excised, capsules were removed, and the tissue was weighed. Two volumes (w/v) of 0.05 M potassium phosphate buffer, pH 7.2, was added to the rat testes tissue on ice, and 11 volumes (w/v) of the same buffer were added to the mouse testes. Tissue was then homogenized using 20 strokes with a Dounce homogenizer equipped with a tight pestle. Homogenized tissue was centrifuged at 800 x G then at 10,000 x G for 15 minutes each. Supernatant was decanted, reserved, and kept chilled on ice. Assays for lyase activity contained the same buffer and NADPH regenerating system described above and also contained […] of 10,000 x G supernatant which was diluted 3-fold resulting in a 5-fold dilution overall in the final assay volume. Substrate, 17α-hydroxyprogesterone plus 1,3-[^3H]-17α-hydroxyprogesterone (40-57 mCi/mmole; 0.18 µCi per assay) to yield a final concentration of 0.1 µM, (=Km) was added to the remaining assay components after a 5 minute equilibration a 20°C of the latter. The total assay volume was 200 µL. Activity was assayed for 20 seconds at 20°C. Assays were terminated, extracted and analyzed as described above except that carrier steroids were 17α-hydroxyprogesterone, androst-4-ene-dione, and testosterone. The organic phase containing the steroids was evaporated using nitrogen gas, the residues dissolved in 18% tetrahydrofuran (v/v) in hexane, and the steroid substrate, 17α-hydroxyprogesterone, and products (AED, TEST) were separated by HPLC on a Si60 (5 µm) column (250 x 4 mm) using 20% (v/v) tetrahydrofuran (THF) in hexane for 20 minutes then ramping to 60% THF (v/v) for 11 minutes. Activity of test compound was expressed as percent inhibition relative to the control and was the mean of each group of treated animals.

`CC12CCC3C(CC[C@H]4NC(=O)CCC34C)C1CC[C@@H]2OC1CC1` (stereo partly drawn) [MDL 103,432, 17β-Cyclopropyloxy-4-aza-5α-androstan-3-one] gave an inhibition at 50 mg/kg (po, 50 mg/kg p.o., 4 hr after dosing) of 66.4%, an inhibition at 50 mg/kg (po, 50 mg/kg p.o., 24 hr after dosing) of 52.7% and an inhibition at 50 mg/kg (sc, 50 mg/kg s.c., 4 hr after dosing) of 32.9%. It also gave an inhibition at 50 mg/kg (sc, 50 mg/kg s.c., 24 hr after dosing) of 40.7%.
